Results published in patent US4279915A, “Method of treatment using new leurosine derivatives” (priority 1973, dated 1981).

What was measured:
[1] = tested on: haemoblastoses and leukemia; test: clinical treatment of patients with haemoblastoses and leukemia (Example A); assay type: in vivo, human
Protocol: Based on the experiences obtained on 17 patients during the first half-year, further 8 patients with haemoblastoses and leukemia were given treatment. The patients were given daily 0.05 mg/kg single doses. The clinical examinations during the second half-year were performed with the same daily dose, but with different total doses. The smallest total amount meant 3, the highest 12 subsequent doses. The dosage was tested both in forms of sequential and intermittent treatment.
3 patients out of 8 received the drug sequentially, which meant single doses on subsequent days, the remaining 5 patients were given intermittent treatment.
The intermittent treatment was made in two ways: 1. Single doses through 3 days, followed by 5 days interval as total up to an amount of 12 times 0.05 mg/kg. 2. Single dose on the first day, followed by 3 days interval, up to a total amount of 12 times 0.05 mg/kg.
The route of administration was always intravenous, 1 mg active substance was dissolved in 10 ml physiological saline.

leukaemias = test: effect of F-leurosine on leukaemias in patients (Table I); assay type: in vivo, human; details: for haematological effect: schedule C
L 1210 leukemia = test: effect on L 1210 i.p. leukemia; assay type: in vivo, BDF1 mice
Text: The treatment extends the life span of animals suffering from L-1210 lymphoid leukemia, s37 ascites sarcoma or Yoshida ascites sarcoma by about 150 to 250 percent.
L 1210 I.P. LEUKEMIA ON BDF1 MICE

[2] = tested on: leukemias and haemoblastoses; test: therapeutic results in leukemias and haemoblastoses (Table VII); assay type: in vivo, human
Protocol: In addition, eight patients were added to the group treated on the basis of this schedule. Therapeutic results obtained by F-Leurosine in leukemias and haemoblastoses are listed in Table VII. |Therapeutic Results Obtained by F-Leurosine Treatment

rhabdomyo-sarcoma = test: growth inhibition of induced and transplanted rhabdomyo-sarcoma; assay type: in vivo
[3] = 0.05 mg/kg daily dose, applied 3-12 times
[4] = 8 × 2.5 mg/kg i.p. 48 hr interval
[5] = 8 × 2.5 mg/kg i.p. 72 hr interval
[6] = 8 × 5.0 mg/kg i.p. 48 hr interval
[7] = 8 × 5.0 mg/kg i.p. 72 hr interval
[8] = 8 × 5.0 mg/kg i.p. 96 hr interval
[9] = 8 × 7.5 mg/kg i.p. 72 hr interval
[10] = 8 × 7.5 mg/kg i.p. 96 hr interval
[11] = 8 × 10.0 mg/kg i.p. 48 hr interval
[12] = 8 × 10.0 mg/kg i.p. 72 hr interval
[13] = 8 × 10.0 mg/kg i.p. 96 hr interval

CCC12CN3CCc4c([nH]c5ccccc45)[C@@](C(=O)OC)(c4cc5c(cc4OC)N(C=O)[C@H]4[C@@](O)(C(=O)OC)[C@H](OC(C)=O)[C@]6(CC)C=CCN7CC[C@]54[C@@H]76)C[C@@H](C3)C1O2 (stereo partly shown) [N-formyl-leurosine]
side effects [1, 3]: does not produce any side effects
untoward neurological symptoms [1, 3]: No untoward symptoms of a neurological respect appear
objective improvement ([1]; 0.05 mg/kg daily i.v., complete treatments): all complete treatments were followed by objective improvement
Complete remission ([1]; 0.05 mg/kg daily i.v., leukemic patients): both leukemic patients had complete remission
effectiveness in acute leukemia and lymphomas ([1]; phase I examinations, acute leukemia (myeloblast and lymphoblast type) and lymphomas): equally effective in acute leukemia (myeloblast and lymphoblast type), and in lymphomas
cytostatic effect ([1]; summary): very effective cytostatic
clinical improvement parallel with the haematological one (leukaemias; ALL and AML patients): observed only in the case of the ALL patient
duration of complete haematological remission (leukaemias; ALL patient): 2 months
outcome after treatment (leukaemias; AML patient): died one month after the end of the treatment
time to relapse after finishing treatment (leukaemias; AML patient, relapse untreatable because of serious thrombopenia and bleeding): 14 days
splenomegaly (leukaemias; CLL, first case): splenomegaly diminished
enlargement of pathological lymph nodes (leukaemias; CLL, second case (T. B.)): became less pronounced
lymph nodes and spleen volume (leukaemias; CLL, third case): both the lymph nodes and the spleen increased in volume
clinical improvement (leukaemias; chronic lymphocytic leukaemia): some clinical improvement was achieved in all the 3 CLL patients
haematological remission (leukaemias; chronic lymphocytic leukaemia): no haematological remission could be induced
complete haematological remission (leukaemias; four cases of acute leukaemia, one ALL, one AML): Complete haematological remission was achieved in two cases
haematological effect (leukaemias; patient seven, AMoL): IR>50%
haematological effect (leukaemias; patient six, AUL): IR>50%
Mean survival (L 1210 leukemia; 8 × 1.25 mg/kg i.p. daily): 27.7 days
Survival (L 1210 leukemia; 8 × 1.25 mg/kg i.p. daily): 131
Mean survival (L 1210 leukemia; [4]): 22.4 days
Survival (L 1210 leukemia; [4]): 137
Mean survival (L 1210 leukemia; [5]): 12.0 days
Survival (L 1210 leukemia; [5]): 48
Mean survival (L 1210 leukemia; 8 × 2.5 mg/kg i.p. daily): 25.0 days
Survival (L 1210 leukemia; 8 × 2.5 mg/kg i.p. daily): 127
Mean survival (L 1210 leukemia; [6]): 24.0 days
Survival (L 1210 leukemia; [6]): 126
Mean survival (L 1210 leukemia; [7]): 22.1 days
Survival (L 1210 leukemia; [7]): 123
Mean survival (L 1210 leukemia; [8]): 10.8 days
Survival (L 1210 leukemia; [8]): 35
Mean survival (L 1210 leukemia; 8 × 5.0 mg/kg i.p. daily): 23.0 days
Survival (L 1210 leukemia; 8 × 5.0 mg/kg i.p. daily): 109
Mean survival (L 1210 leukemia; [9]): 20.2 days
Survival (L 1210 leukemia; [9]): 117
Mean survival (L 1210 leukemia; [10]): 19.2 days
Survival (L 1210 leukemia; [10]): 95
Mean survival (L 1210 leukemia; 8 × 7.5 mg/kg i.p. daily): 19.5 days
toxicity mark in Survival column (L 1210 leukemia; 8 × 7.5 mg/kg i.p. daily): tox
Survival (L 1210 leukemia; 8 × 7.5 mg/kg i.p. daily, tox): 56
Mean survival (L 1210 leukemia; [11]): 21.7 days
toxicity mark in Survival column (L 1210 leukemia; [11]): tox
Survival (L 1210 leukemia; 8 × 10.0 mg/kg i.p. 48 hr interval, tox): 60
Mean survival (L 1210 leukemia; [12]): 22.3 days
Survival (L 1210 leukemia; [12]): 145
Mean survival (L 1210 leukemia; [13]): 23.6 days
Survival (L 1210 leukemia; [13]): 136
potency of small daily doses vs high doses twice weekly (L 1210 leukemia; BDF1 mice): equally potent
sensitivity of L-1210 leukemia to the treatment (L 1210 leukemia; BDF1 mice): sensitive to the treatment
extension of life span (L 1210 leukemia; L-1210 lymphoid leukemia, about): 150-250%
Complete remission ([2]; ALL, 1 patient): 1 patients
Complete remission ([2]; AML, 1 patient): 1 patients
Partial remission ([2]; AMoL, 1 patient): 1 patients
Partial remission ([2]; AUL, 1 patient): 1 patients
Partial remission ([2]; CLL, 3 patients): 3 patients
No response ([2]; Hodgkin's disease, 2 patients): 2 patients
No response ([2]; LSC, 5 patients): 1 patients
Partial remission ([2]; LSC, 5 patients): 4 patients
No response ([2]; Multiple myelomo, 6 patients): 2 patients
Partial remission ([2]; Multiple myelomo, 6 patients): 4 patients
No response ([2]; RSC, 2 patients): 1 patients
Partial remission ([2]; RSC, 2 patients): 1 patients
Complete remission ([2]; Total, 22 patients): 2 patients
No response ([2]; Total, 22 patients): 6 patients
Partial remission ([2]; Total, 22 patients): 14 patients
growth inhibition (rhabdomyo-sarcoma): remarkable growth inhibition
